Data on 9 compounds can be found in patent EP4722219A1 (Gan & Lee Pharmaceuticals Co., Ltd., priority 2023, dated 2024).

Assay type in all cases: cell-based
The subject of one experiment is T-47D cells. Kind of experiment: Inhibition of cell proliferation in T-47D cells (CCK-8). The following applies: 6 days treatment, CCK-8 cell viability. The method, boiled down:
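Viability by CCK-8 after a 6-day, 37 °C/5% CO2 exposure of T-47D cells (3,000/well, RPMI-1640 + 10% FBS) to graded PROTAC concentrations. Inhibition rates gave the IC50.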

The subject of another experiment is MCF-7 cells. The experiment is described as follows: Inhibition of cell proliferation in MCF-7 cells (CCK-8). Particulars: MCF-7 cell proliferation, 6 days treatment. The method, boiled down: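 IC50 from CCK-8 viability-based inhibition after 6-day treatment of MCF-7 cells (800 cells/well, 10% FBS DMEM, 37 °C, 5% CO2) with serially varied compound concentrations.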

The target in experiment [1] is T1, ERα (Homo sapiens, UniProt P03372).
T1 sequence (P03372 1-595): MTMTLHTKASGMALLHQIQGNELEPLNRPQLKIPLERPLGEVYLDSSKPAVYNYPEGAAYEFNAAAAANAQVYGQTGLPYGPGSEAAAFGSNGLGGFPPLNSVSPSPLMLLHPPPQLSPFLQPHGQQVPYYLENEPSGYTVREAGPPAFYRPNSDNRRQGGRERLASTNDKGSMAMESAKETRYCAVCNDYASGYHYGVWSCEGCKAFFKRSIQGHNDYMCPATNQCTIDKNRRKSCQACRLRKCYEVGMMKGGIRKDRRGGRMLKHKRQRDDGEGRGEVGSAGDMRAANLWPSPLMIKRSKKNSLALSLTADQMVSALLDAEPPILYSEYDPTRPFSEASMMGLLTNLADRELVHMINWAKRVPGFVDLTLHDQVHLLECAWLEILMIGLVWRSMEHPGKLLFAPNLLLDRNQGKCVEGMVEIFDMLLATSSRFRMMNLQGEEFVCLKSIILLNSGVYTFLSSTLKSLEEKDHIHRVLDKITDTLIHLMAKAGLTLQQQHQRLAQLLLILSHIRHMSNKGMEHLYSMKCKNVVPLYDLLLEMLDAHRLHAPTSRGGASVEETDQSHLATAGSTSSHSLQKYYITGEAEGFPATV
The experiment is described as follows: ERα degradation in T-47D cells (Western blot). The following applies: 4 hours. The method, boiled down: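 ERα was quantified by immunoblot of RIPA lysates (20 µg total protein), normalised to an internal reference band, and degradation was expressed against control. Lysates came from T-47D cells plated at 3×10^5 cells/well and dosed 4 hours at 37°C with compound at 0.15-1000 nM final concentration.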

The target in experiment [2] is T1, ERα. The experiment is described as follows: ERα degradation in MCF-7 cells (Western blot). The following applies: 4 hours. Further details: host or cells: MCF-7. The method, boiled down:
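ERα degradation was quantified by immunoblot densitometry, ERα signal divided by internal-reference signal and compared with control. Compounds were applied to MCF-7 cells for 4 hours at final concentrations of 0.15–1000 nM, with 20 µg total protein loaded per lane.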
(Immunoblotting shows a protein as a band on a membrane.)

What is called IC50 is the point on the concentration scale where inhibition reaches its midpoint. Low values mean greater potency in that assay, high ones weaker potency in that assay. In the case of `Cn1c(=O)n(C2CCC(=O)NC2=O)c2ccc3c(c21)OCC31CCN(C2CC3(CCN(c4ccc([C@@H]5c6ccc(O)cc6CC[C@@H]5c5ccccc5)cc4)CC3)C2)CC1` (stereo partly drawn) [ER-P-17, 3-(1'-(7-(4-((1R,2S)-6-hydroxy-2-phenyl-1,2,3,4-tetrahydronaphthalen-1-yl)phenyl)-7-azaspiro[3.5]nonan-2-yl)-1-methyl-2-oxo-1,2-dihydro-3H,7H-spiro[benzofuro[6,7-d]imidazole-6,4'-piperidin]-3-yl)piperidine-2,6-dione], the IC50 was found to be 20.9 nM in the experiment on T-47D cells and 4560 nM in the experiment with MCF-7 cells. The “Degradation rate of ERα in T-47D cells (%)” value at ERα [1] (1nM) was determined as 22%; on ERα [1] (10nM), 30%. Moreover, the “Degradation rate of ERα in MCF-7 cells (%)” value was 37% at ERα [2] (1nM) and 33% at ERα [2] (10nM).

With `Cn1c(=O)n(C2CCC(=O)NC2=O)c2ccc3c(c21)OCC31CCN(C2CC3(C2)CN(c2ccc([C@@H]4c5ccc(O)cc5CC[C@@H]4c4ccccc4)cc2)C3)CC1` (stereo partly drawn) [ER-P-18, 3-(1'-(2-(4-((1R,2S)-6-hydroxy-2-phenyl-1,2,3,4-tetrahydronaphthalen-1-yl)phenyl)-2-azaspiro[3.3]heptan-6-yl)-1-methyl-2-oxo-1,2-dihydro-3H,7H-spiro[benzofuro[6,7-d]imidazole-6,4'-piperidin]-3-yl)piperidine-2,6-dione], the IC50 in the experiment on T-47D cells (Homo sapiens, T47D, 144 h) was found to be 13.7 nM; in the experiment with MCF-7 cells (Homo sapiens, MCF7, 144 h) it was 7240 nM. In addition, the “Degradation rate of ERα in T-47D cells (%)” value worked out at 20% at ERα [1] (1nM) and 23% at ERα [1] (10nM). Moreover, the “Degradation rate of ERα in MCF-7 cells (%)” value on ERα [2] (1nM) turned out to be 33%; on ERα [2] (10nM), 18%.

Turning to `Cn1c(=O)n(C2CCC(=O)NC2=O)c2ccc3c(c21)C1(CCN(C2CCC4(CC2)CN(c2ccc([C@@H]5c6ccc(O)cc6CC[C@@H]5c5ccccc5)cc2)C4)CC1)CO3` (stereo partly drawn) [ER-P-19, 3-(1'-(2-(4-((1R,2S)-6-hydroxy-2-phenyl-1,2,3,4-tetrahydronaphthalen-1-yl)phenyl)-2-azaspiro[3.5]nonan-7-yl)-1-methyl-2-oxo-1,2-dihydro-3H,7H-spiro[benzofuro[4,5-d]imidazole-8,4'-piperidin]-3-yl)piperidine-2,6-dione], the IC50 stood at 10.3 nM in the experiment on T-47D cells (Homo sapiens, T47D, 144 h) and 4460 nM in the experiment with MCF-7 cells (Homo sapiens, MCF7, 144 h). Further, the “Degradation rate of ERα in T-47D cells (%)” value at ERα [1] (1nM) is on record as 6%; on ERα [1] (10nM) it was 15%. Moreover, the “Degradation rate of ERα in MCF-7 cells (%)” value was -8% at ERα [2] (1nM) and 7% at ERα [2] (10nM).

Consider `CN(C(=O)CN1CCC2(CC1)CCC1(CC2)COc2c1ccc1c2CN(C2CCC(=O)NC2=O)C1=O)C1CCC2(CC1)CN(c1ccc([C@@H]3c4ccc(O)cc4CC[C@@H]3c3ccccc3)cc1)C2` (stereo partly drawn) [ER-P-20, 2-(7-(2,6-dioxohesperidin-3-yl)-6-oxo-7,8-dihydro-2H,6H-dipyrazole[furo[2,3-e]isoindole-3,1'-cyclohexane-4',4'-piperidin]-1"-yl)-N-(2-(4-((1R,2S)-6-hydroxy-2-phenyl-1,2,3,4-tetrahydronaphthalen-1-yl)phenyl)-2-azaspiro[3.5]nonan-7-yl)-N-methylacetamide], for which the IC50 is 5.02 nM in the experiment on T-47D cells (Homo sapiens, T47D, 144 h) and 2230 nM in the experiment with MCF-7 cells (Homo sapiens, MCF7, 144 h). Also, the “Degradation rate of ERα in T-47D cells (%)” value at ERα [1] (1nM) stood at 38%; at ERα [1] (10nM), 66%. The “Degradation rate of ERα in MCF-7 cells (%)” value amounted to 5% on ERα [2] (1nM) and 30% on ERα [2] (10nM).

With `C[C@@H]1Cc2cc(O)ccc2C(c2c(F)cc(N3CCC4(CCC(N5CC6(CCC7(CC6)COc6c7ccc7c6CN(C6CCC(=O)NC6=O)C7=O)C5)CC4)CC3)cc2F)N1CC(F)F` (stereo partly drawn) [ER-P-21, 3-(1-(3-(4-((3R)-2-(2,2-difluoroethyl)-6-hydroxy-3-methyl-1,2,3,4-tetrahydroisoquinolin-1-yl)-3,5-difluorophenyl)-3-azaspiro[5.5]undecan-9-yl)-6"-oxo-6",8"-dihydro-2"H,7"H-dispiro[azetidine-3,1'-cyclohexane-4',3"-furo[2,3-e]isoindol]-7"-yl)piperidine-2,6-dione], the IC50 in the experiment with T-47D cells (Homo sapiens, T47D, 144 h) was 1.3 nM; in the experiment with MCF-7 cells (Homo sapiens, MCF7, 144 h), 15.1 nM. The entries for the “Degradation rate of ERα in T-47D cells (%)” value on ERα [1] (1nM) and at ERα [1] (10nM) were 42% and 65%, respectively. Besides, the “Degradation rate of ERα in MCF-7 cells (%)” value at ERα [2] (1nM) was determined as 50%; on ERα [2] (10nM), 69%.

For `O=C1CCC(N2Cc3c(ccc4c3OCC43CCC4(CC3)CN(CC3CCN(c5ccc([C@@H]6c7ccc(O)cc7CC[C@@H]6c6ccccc6)cc5)CC3)C4)C2=O)C(=O)N1` (stereo partly drawn) [ER-P-23, 3-(1-((1-(4-((1R,2S)-6-hydroxy-2-phenyl-1,2,3,4-tetrahydronaphthalen-1-yl)phenyl)piperidin-4-yl)methyl)-6"-oxo-6",8"-dihydro-2"H,7"H-di(pyridyl)furan[azetidine-3,1'-cyclohexane-4',3"-furo[2,3-e]isoindol]-7"-yl)piperidine-2,6-dione], the IC50 was 1.61 nM with T-47D cells (Homo sapiens, T47D, 144 h) and under 0.256 nM with MCF-7 cells (Homo sapiens, MCF7, 144 h). Further, the “Degradation rate of ERα in T-47D cells (%)” value on ERα [1] (1nM) was determined as 40%; on ERα [1] (10nM), 67%. For the same compound, the figures for the “Degradation rate of ERα in MCF-7 cells (%)” value at ERα [2] (1nM) and at ERα [2] (10nM) were 26% and 48%, respectively.

Take `Cn1c(=O)n(C2CCC(=O)NC2=O)c2cc3c(cc21)C1(CCN(CC2CCN(c4ccc([C@@H]5c6ccc(O)cc6CC[C@@H]5c5ccccc5)cc4)CC2)CC1)CO3` (stereo partly drawn) [ER-P-24, 3-(1'-((1-(4-((1R,2S)-6-hydroxy-2-phenyl-1,2,3,4-tetrahydronaphthalen-1-yl)phenyl)piperidin-4-yl)methyl)-1-methyl-2-oxo-1,2-dihydro-3H,6H-spiro[benzofuro[5,6-d]imidazole-7,4'-piperidin]-3-yl)piperidine-2,6-dione]: the IC50 came to 19.2 nM in the experiment with T-47D cells (Homo sapiens, T47D, 144 h) and 1070 nM with MCF-7 cells (Homo sapiens, MCF7, 144 h). Also, the “Degradation rate of ERα in T-47D cells (%)” value was -16% at ERα [1] (1nM) and -49% at ERα [1] (10nM). For the same compound, the results for the “Degradation rate of ERα in MCF-7 cells (%)” value on ERα [2] (1nM) and at ERα [2] (10nM) were -68% and -39%, respectively.

Consider `Cn1c(=O)n(C2CCC(=O)NC2=O)c2ccc3c(c21)OCC31CCN(C(=O)C2CN(CC3CCN(c4ccc([C@@H]5c6ccc(O)cc6CC[C@@H]5c5ccccc5)cc4)CC3)C2)CC1` (stereo partly drawn) [ER-P-25, 3-(1'-(1-((1-(4-((1R,2S)-6-hydroxy-2-phenyl-1,2,3,4-tetrahydronaphthalen-1-yl)phenyl)piperidin-4-yl)methyl)azetidine-3-carbonyl)-1-methyl-2-oxo-1,2-dihydro-3H,7H-spiro[benzofuro[6,7-d]imidazole-6,4'-piperidin]-3-yl)piperidine-2,6-dione], for which the IC50 in the experiment on T-47D cells (Homo sapiens, T47D, 144 h) was found to be 0.84 nM; in the experiment with MCF-7 cells (Homo sapiens, MCF7, 144 h) it was 1.26 nM. Further, the “Degradation rate of ERα in T-47D cells (%)” value amounted to 77% at ERα [1] (1nM) and 71% on ERα [1] (10nM). Also, the “Degradation rate of ERα in MCF-7 cells (%)” value is given as 49% on ERα [2] (1nM) and 53% on ERα [2] (10nM).

Consider `Cn1c(=O)n(C2CCC(=O)NC2=O)c2cc3c(cc21)C1(CCN(C(=O)C2CN(CC4CCN(c5ccc([C@@H]6c7ccc(O)cc7CC[C@@H]6c6ccccc6)cc5)CC4)C2)CC1)CO3` (stereo partly drawn) [ER-P-26], for which the IC50 is 0.51 nM with T-47D cells (Homo sapiens, T47D, 144 h) and 125 nM in the experiment with MCF-7 cells (Homo sapiens, MCF7, 144 h). The “Degradation rate of ERα in T-47D cells (%)” value worked out at 58% on ERα [1] (1nM) and 70% at ERα [1] (10nM). The “Degradation rate of ERα in MCF-7 cells (%)” value on ERα [2] (1nM) amounted to 43%; on ERα [2] (10nM), 40%.
